Data as given in patent publication US11926640B2, “Prodrugs of glutamine analogs” (THE JOHNS HOPKINS UNIVERSITY, priority 2015, dated 2024).
Entries after “also recorded” stand apart in the source; their conditions may differ. Read-outs that look alike come from different tables or passages of the source.

How the values were obtained:
[1] = in vitro metabolic stability in dog plasma; type: in vitro ADME; settings: 30 min and 60 min
Experimental: Percentage remaining was calculated in the following manner.

[2] = plasma and CSF pharmacokinetics of DON in monkeys after i.v. DON or 14b; type: in vivo, pigtail macaques; settings: Monkey, FIG. 58B
Experimental: Pharmacokinetic Studies in Non-human primates. All monkey studies were conducted according to protocol (#PR15M298) approved by the Animal Care and Use Committee at Johns Hopkins University. Two female pigtail monkeys (approximately 3.5 kg, non-drug naive) were adjacently housed in stainless steel cages on a social interaction rack (contains 4 cages, each 32.5″ wide×28″ deep×32″ high) maintaining temperature of 64-84° F., humidity of 30-70% with alternating 14-10 hour light/dark cycle as per the USDA Animal Welfare Act (9 CFR. Parts 1, 2, and 3). Food was provided daily in amounts appropriate for the size and age of the animals and RO purified water provided ad libitum through an in-cage lixit valve. Food enrichment was provided Monday through Friday. Prior to drug administration, macaques were sedated with ketamine given as an intramuscular injection prior to test article administration. […]
Bioanalysis of DON. […] The mean predicted relative standard deviation for back calculated concentrations of the standards and QC's for all analytes were within the range of 85 to 115%, except for the lowest concentration which was within the range of 80 to 120% with an overall accuracy and precision of 6.7% and 6.6%, respectively.
Pharmacokinetic Analysis. […] Area under the curve (AUC) was calculated by log-linear trapezoidal rule to the end of sample collection (AUClast). […]

[3] = plasma and CSF pharmacokinetics of DON in swine after i.v. infusion; type: in vivo, Göttingen×Yucutan miniature swine; settings: 60 min post-administration
Experimental: Compound: Compound 47 was dissolved in a sterile saline containing 5% ethanol and 5% Tween 80 on the date of administration.
Swine: Swine studies were conducted under a protocol approved by the Johns Hopkins Animal Care and Use Committee. Adult, female Göttingen×Yucutan miniature swine (Massachusetts General Hospital, MA) were housed in Johns Hopkins University facilities accredited by the Association for Assessment and Accreditation of Laboratory Animal Care International in compliance with the Animal Welfare Act, Animal Welfare Regulations, and the Public Health Service Policy on the Humane Care and Use of Laboratory Animals. Animals were maintained on a 14-h light and 10-h dark schedule, provided ad libitum water and a commercial miniswine diet (Teklad, Madison, WI) with environmental enrichment (fruit/vegetables) twice daily.

[4] = in vitro metabolic stability in pig plasma; settings: 30 min and 60 min
[5] = in vitro metabolic stability in mouse plasma
[6] = in vitro metabolic stability in human plasma
[7] = in vitro metabolic stability in monkey plasma
CT26 colon cancer = experiment: CT26 tumor model; type: in vivo, mice; settings: single agent
4T1 tumor cells = experiment: 4T1 breast cancer model; type: in vivo, BALB/c mice; settings: single agent, about 1 mg/kg daily
Experimental: 4T1 tumor cells (0.1 million) were injected into the mammary fat pads of 8-week-old female BALB/c mice. Mice received vehicle (PBS) or 1 mg/kg compound 25 daily from day 5 to day 22. Photos were taken on day 30 after tumor inoculation (FIG. 57A). Tumor volume was measured 2-3 times weekly until WT mice were sacrificed (when size reached to 20 mm length or necrosis occurred). Day 0: 100K 4T1 cells s.c. in 4th mammary pad. Day 5-22: Daily compound 25.
4T1-Luc tumor cells (0.1 million) were injected into the mammary fat pads of 8-week-old female BALB/c mice. Mice received vehicle (PBS) or 1 mg/kg compound 25 daily from day 7. Anti-PD1 (5 mg/Kg) was administered on day 5, 8, and 12. Mice carrying 4T1-luc tumors are injected with Luciferin to measure luminescence from the tumor. IVIS imaging were taken on day 13.
4T1-Luc tumor cells (0.1 million) were injected into the mammary fat pads of 8-week-old female BALB/c mice. Mice received vehicle (PBS) or 1 mg/kg compound 25 daily from day 7 to day 16. Anti-PD1 (5 mg/Kg) was administered on day 5, 8, 12 and 17. Tumor volume was measured 2-3 times weekly until tumors were evaluated for tumor infiltrating cells on day 21. Tumor weights were measured on day 21. On day 21, the PD1 group tumor size looks like it was reduced, however, the result was not due to a tumor size reduction, but rather because one of the large tumor mice died.

MC38 colon cancer = experiment: MC38 tumor model; type: in vivo, mice; settings: single agent
colon cancer cells = experiment: rechallenge of compound 25 treated mice with colon cancer cells; type: in vivo; settings: mice previously treated with single agent
[8] = human microsomes
[9] = pig microsomes
[10] = mouse, in vivo
[11] = mouse, in vivo; remark: listed apart in the source
EL4 mouse lymphoma = EL4 mouse lymphoma model; settings: in vivo
[12] = Cmax, tumor to gut ratio and GI toxicity of 25 vs DON at equimolar doses in mice; settings: 0.8 mg/kg (equivalent) daily for 5 days
U87 human glioma cells = experiment: U87 flank xenograft mouse model of GBM; type: in vivo
Experimental: Mice Efficacy Studies. All mouse efficacy studies were conducted according to protocol #MO13M69 approved by the Animal Care and Use Committee at Johns Hopkins University. Female athymic (RH-Foxn1nu mice) mice between 25 and 30 g were obtained (Harlan Sprague Dawley Inc. Indianapolis. Indiana), and maintained on a 12 hour light-dark cycle with ad libitum access to food and water. U87 human glioma cells were injected s.c. (5×10^6 cells in […] of PBS) in four separate locations on the flanks of each mouse. When tumors grew to a mean volume of around 200 mm^3, mice were randomized into either vehicle (HEPES-buffered saline, i.p.) or DON (1; 0.8 mg/kg, i.p.). In one cohort, mice were administered a single dose of the appropriate solution two hours after which glutamine levels were quantified in the tumor as described previously (Le et al., 2012). In brief, tumors were harvested, snap frozen, and homogenized in liquid N, then subjected to metabolite extraction using methanol and DI water. Quantification was performed using Agilent 6520 Quadrupole-Time-of-Flight (Q-TOF) mass spectrometer with Agilent 1290 HPLC and using Agilent Mass Hunter and Agilent Qualitative and Quantitative Analysis Software packages. Glutamine content was averaged by group for each individual tumor (n=3-4/group), depicted as relative intensity, and analyzed by one-tailed t test. In a second cohort, efficacy experiments were conducted. Mice were injected once daily for six days; tumor volumes were measured using digital calipers and calculated according to the formula: [volume=(largest tumor dimension)×(smallest tumor dimension)^2×0.52] at 2, 4, and 6 days after the onset of treatment. Each individual tumor (n=8-10/group) was normalized to its pretreatment volume, averaged and analyzed by repeated measures two-way analysis of variance (ANOVA). If significant, a Bonferroni post hoc test was subsequently applied. Significance was defined as p<0.05.

[13] = 5-day i.v. toxicity comparison of DON and 38 in pigs; type: in vivo
melanoma = melanoma growth model; settings: in vivo
[14] = tolerability of daily treatment with DON or 25 in mice

## CC(C)OC(=O)[C@H](CCC(=O)C=[N+]=[N-])NC(=O)OC(C)OC(=O)C(C)(C)C (single isomer, unassigned) [Compound 14b, 1-Methylethyl 6-(1λ^5-diazynylidene)-N-({1-[(2,2-dimethylpropanoyl)oxy]ethoxy}carbonyl)-5-oxo-L-norleucinate]
[1]
  stability in dog plasma (in words): highly stable
[2]
  CSF:plasma ratio of DON (in words): enhanced CSF:plasma ratio
[3]
  CSF delivery of DON (in words): substantially higher amounts of DON to the CSF; also recorded: enhanced CSF delivery of DON
  CSF:plasma ratio of DON (in words): increased CSF-to-plasma ratios; also recorded: enhanced CSF:plasma ratio
[4]
  stability in pig plasma (in words): highly stable
[5]; 30 min and 60 min
  stability in mouse plasma (in words): rapidly metabolized
[5]; prodrug remaining within the 60 min incubation time, mouse plasma
  PLASMA STABILITY Mouse: 0%
[6]; 30 min and 60 min
  stability in human plasma (in words): highly stable
[6]; prodrug remaining within the 60 min incubation time, human plasma
  PLASMA STABILITY Human: 91%
[7]; 30 min and 60 min
  stability in monkey plasma (in words): highly stable
[7]; prodrug remaining within the 60 min incubation time, monkey plasma
  PLASMA STABILITY Monkey: 61%

## CCOC(=O)[C@H](CCC(=O)C=[N+]=[N-])NC(=O)[C@@H](N)CC(C)C [Compound 25, Ethyl 2-(2-amino-4-methylpentanamido)-6-diazo-5-oxohexanoate]
CT26 colon cancer
  antitumor efficacy in CT26 tumor model (in words): superior to CB-839; also recorded: robust response and improved overall survival
4T1 tumor cells
  antitumor efficacy in 4T1 breast cancer model (in words): superior to CB-839; also recorded: robust response and improved overall survival; also recorded: inhibited the growth of mammary carcinoma tumor cells; also recorded: inhibits tumor growth
MC38 colon cancer
  antitumor efficacy in MC38 tumor model (in words): complete and durable response; also recorded: inhibits colon cell proliferation and extends the survival of mice; also recorded: efficacious; also recorded: more efficacious than oxaliplatin
Colon cancer cells
  colon cancer cell proliferation upon rechallenge (in words): prevents colon cancer cell proliferation upon rechallenge
[8]
  liver microsomal stability (in words): moderate-high stability
[9]
  liver microsomal stability (in words): moderate-high stability
[10]
  blood counts (in words): some leukopenia
  body weight (in words): No weight loss
  bone marrow suppression (in words): no bone marrow suppression
  renal and liver function (in words): unaffected
[11]
  Cmax vs DON (in words): reduces Cmax
  tumor to gut ratio vs DON (in words): enhances tumor to gut ratio
EL4 mouse lymphoma
  antitumor efficacy against lymphoma (in words): cure lymphoma; also recorded: efficacious
[12]
  GI toxicity, jejunum-ileum histology (in words): causes less GI toxicity

## [N-]=[N+]=CC(=O)CC[C@H](N)C(=O)O [DON, 6-diazo-5-oxo-L-norleucine]
U87 human glioma cells; 0.8 mg/kg, i.p, q.d. days 1-6
  flank GBM tumor size (in words): dramatic reduction in tumor size
U87 human glioma cells; 0.8 mg/kg, i.p., 2 hours post-administration, flank GBM tumors
  glutamine metabolism in tumor (endogenous glutamine accumulation): inhibited glutamine metabolism
U87 human glioma cells; mice receiving DON 0.8 mg/kg, i.p, q.d.
  signs of toxicity (in words): significant signs of toxicity
[13]; 5 days of dosing
  macroscopic stomach toxicity (in words): more severe stomach toxicity
[13]; DON 1.6 mg/kg vs 38 1.5 mg/kg, i.v. 2 h/day for 5 days, equivalent PBMC exposure
  adverse clinical signs (in words): more adverse clinical signs; also recorded: more adverse clinical effects
melanoma
  effect on melanoma growth (in words): modest effect on inhibiting melanoma growth
EL4 mouse lymphoma
  antitumor efficacy against lymphoma (in words): cure lymphoma; also recorded: markedly inhibits lymphoma growth; also recorded: efficacious
[14]; daily high dose treatment
  blood counts (in words): pan-cytopenia
  body weight (in words): weight loss
[14]; high dose
  renal and liver function (in words): unaffected
[12]
  GI toxicity, jejunum-ileum histology (in words): significant inflammation
